Several values for one entry are separate records, joined by “and”; a condition that tells them apart may be missing. Identical values can stand only once.
Legend:
[1] = tested on: cytokines and chemokines in PBMCs from HIV-infected donors; experiment: Induction of cytokines/chemokines ex vivo, Luminex (Example 211); type: cell-based, human; conditions: PBMC supernatant day 2
Description: PBMCs from HIV-infected donors on suppressive cART were isolated, as described previously, and immediately added to tissue culture plates pre-equilibrated at 37° C. with media containing DMSO or the compound of Example 49 (GS-9620) at concentrations from 0.1 nM or 10.0 uM. At day 2 after treatment, cell-free culture supernatants were collected and frozen at −80C for subsequent analysis. Frozen supernatants were thawed at room temperature, and the cytokines and chemokines indicated were quantitated with a custom multiplexed xMAP Luminex® assay following the manufacturer's instructions (Thermo Fisher Scientific Inc., Grand Island, N.Y., custom-designed kit).

[2] = tested on: HIV in PBMCs from HIV-infected donors; human Interferon α/β receptor chain 2 blocked; experiment: HIV activation with and without IFNα/β receptor block (Example 212); type: cell-based; conditions: Example 49 10 nM to 10 uM with anti-IFNα/β receptor chain 2 mAb MMHAR-2 at 1:500; day 4; 4 donors; p<0.05
Description: PBMCs from HIV-infected donors on suppressive cART were isolated, as before, and treated with the compound of Example 49 (GS-9620) at the doses indicated (10 nM to 10 uM) in the presence or absence of a mouse monoclonal antibody (clone MMHAR-2) against the human Interferon α/β receptor chain 2 (PBL Assay Science, Piscataway, N.J., Cat #21385-1) used at 1:500 dilution. At day 4 after treatment, cell-free culture supernatant was collected and HIV viral RNA was quantitated using the AmliPrep/COBAS® TaqMan® assay. Fold HIV activation in PBMCs from two HIV-infected donors treated with the compound of Example 49 alone and in combination with the anti-IFNα/β mAB (IFNAR block) is depicted in FIG. 8.

[3] = tested on: HIV-infected CD4 T cells (HIV-1 clinical isolate HT593); experiment: Killing of HIV-infected CD4 T cells by combination of Example 49 and HIV antibody PGT121 (Example 218); type: cell-based, human; conditions: 5 days, combined with PGT121, two donors
Description: PBMCs from […] (AllCells: Donor IDs A4593, A4596, A4606) were isolated, as described previously. PBMCs were treated with DMSO or with the compound of Example 49 (GS-9620) at 0.1 uM or 1 uM in replicate culture sets of 8 for 5 days. In parallel, total CD4 T cells were isolated from each donors' PBMCs using the EasySep Human CD4+ T cell Enrichment Kit (Stemcell Technologies). CD4 T cells were infected in bulk with the HIV-1 clinical isolate HT593 (NIH AIDS Reagent Program) using 50-100 ng p24/million CD4 T cells by spinfecting at 1200×g for 2 hours. HIV-infected CD4 T cells were incubated for 5 days at 37° C. in RPMI plus 10% FBS with 30 U/mL IL-2 (Invitrogen). After 5 days in culture, HIV-infected CD4 T cells were washed, counted, and added to PBMCs from the autologous donor at a ratio of 20 PBMCs to 1 CD4 T cell (20:1). To each co-culture replicate, HIV antibody PGT121 (Gilead Sciences, Inc.) was added at concentrations from 6.7e-5 nM to 6.7e2 nM. Co-cultures were incubated with or without HIV antibody for 1 day at 37° C.
Co-cultures were collected and stained with live/dead Fixable Aqua Dead Cell Stain (Invitrogen) and PE-Cy7-labeled antibody to CD4 (BD Biosciences). Cells were fixed and permeabilized, as described previously, and stained with PE labeled antibody to HIV Gag protein p24 (Beckman Coulter). FACS was performed on a LSR Fortessa (BD Biosciences) and data analysis was done with FlowJo software (TreeStar). Data was plotted and statistical analysis was done with GraphPad Prism software (GraphPad). Killing of HIV-infected CD4 T cells was calculated as a reduction of CD4+p24+ T cells at each PGT121 concentration relative to cultures without PGT121.

[4] = tested on: proviral SIV DNA; experiment: Proviral SIV DNA in PBMCs, lymph node and colon by qPCR (Example 205); type: in vivo, rhesus macaques
Source text: A whole blood sample, an inguinal lymph node sample, and a colon pinch biopsy sample were taken from the animals dosed with the compound of Example 4 and from the animals dosed with the vehicle of Example 201 (placebo group) in the study described in Example 204. These samples were taken prior to initiation of dosing and two weeks after the last dose; all samples were taken while animals were on cART. Total DNA was isolated from each sample using commercially available blood and tissue DNA extraction kits. Proviral SIV DNA levels were measured by quantitative PCR (qPCR) using probe-primer sets specific to the SIV gag gene and normalization for cellular input by measuring the glyceraldehyde 3-phosphate dehydrogenase (GAPDH) gene levels. […] In one of the compound treated animals (166-08), there was only a noted decrease in the proviral DNA content in the PBMCs, a minor increase in lymph node, and a minor decrease in the colon. In the vehicle-dosed placebo control animals, however, there were slight to moderate increases in two of three animals in proviral SIV DNA in the PBMC and colon samples, and relatively stable levels in lymph node samples.

## CCCCOc1nc(N)c2c(n1)N(Cc1cccc(CN3CCCC3)c1)CC(=O)N2 [Example 49]
[1]
  BAFF fold induced vs. DMSO control: <2-fold
  I-TAC fold induced vs. DMSO control: >100-fold
  IFNα fold induced vs. DMSO control: >100-fold
  IFNβ fold induced vs. DMSO control: <2-fold
  IFNω fold induced vs. DMSO control: >100-fold
  IL-1 RA fold induced vs. DMSO control: >100-fold
  IL-4 fold induced vs. DMSO control: <2-fold
  IL-5 fold induced vs. DMSO control: <2-fold
  IL-6 fold induced vs. DMSO control: >100-fold
  IL-10 fold induced vs. DMSO control: >100-fold
  IL-12 (p70) fold induced vs. DMSO control: <2-fold
  IL-13 fold induced vs. DMSO control: <2-fold
  IL-17 fold induced vs. DMSO control: <2-fold
  IL-18 fold induced vs. DMSO control: <2-fold
  IL-27 fold induced vs. DMSO control: <2-fold
  IL-31 fold induced vs. DMSO control: <2-fold
  IP-10 fold induced vs. DMSO control: >100-fold
  MCP-1 fold induced vs. DMSO control: >100-fold
  MIP-1α fold induced vs. DMSO control: >100-fold
  MIP-1β fold induced vs. DMSO control: >100-fold
  MMP-1 fold induced vs. DMSO control: <2-fold
  SCD40L fold induced vs. DMSO control: <2-fold
  TNFS10 fold induced vs. DMSO control: <2-fold
[2]
  mean maximal reduction of fold HIV activation by IFNAR block: 85%
[3]; Example 49 0.1 uM
  increase of AUC relative to DMSO controls: 32% and 52%
  increase of maximal killing relative to DMSO controls: 30% and 38%
[3]; Example 49 1 uM
  increase of AUC relative to DMSO controls: 52% and 73%
  increase of maximal killing relative to DMSO controls: 50% and 48%

## CCCCOc1nc(N)c2c(n1)N(Cc1ccc(CN3CCCC3)cc1)CC(=O)N2 [Example 4]
[4]; SIV+ rhesus on cART, prior to initiation of dosing, one line per animal
  Proviral SIV DNA, PBMC, Pre: 150 copies/10^6 cells and 68 copies/10^6 cells and 160 copies/10^6 cells and 120 copies/10^6 cells
[4]; SIV+ rhesus on cART, two weeks after the last dose, one line per animal
  Proviral SIV DNA, PBMC, Post: 100 copies/10^6 cells and 34 copies/10^6 cells and 89 copies/10^6 cells and 3 copies/10^6 cells
[4]; colon pinch biopsy, on cART, prior to initiation of dosing, one line per animal
  Proviral SIV DNA, Colon, Pre: 230 copies/10^6 cells and 80 copies/10^6 cells and 150 copies/10^6 cells and 110 copies/10^6 cells
[4]; colon pinch biopsy, on cART, two weeks after the last dose, one line per animal
  Proviral SIV DNA, Colon, Post: 210 copies/10^6 cells and 3 copies/10^6 cells (3×)
[4]; inguinal lymph node, on cART, prior to initiation of dosing, one line per animal
  Proviral SIV DNA, Lymph node, Pre: 270 copies/10^6 cells and 31 copies/10^6 cells and 210 copies/10^6 cells and 130 copies/10^6 cells
[4]; inguinal lymph node, on cART, two weeks after the last dose, one line per animal
  Proviral SIV DNA, Lymph node, Post: 280 copies/10^6 cells and 3 copies/10^6 cells (2×) and 84 copies/10^6 cells
[4]; within each animal, on cART
  change of proviral SIV DNA, pre- vs post-treatment, across PBMC, inguinal lymph node and colon: clear decrease in proviral DNA content for three of four animals
